Test results published in patent US20080009418A1, “Selective Inhibitors” (Alchemia LTD., priority 2004, published 2008).

Tests used:
Human melanocortin (MC5) = molecular target: T1, Human melanocortin (MC5) (Homo sapiens, UniProt P33032); experiment: Radioligand binding, human melanocortin MC5 membranes, FlashPlate, [125I]-NDP-αMSH; conditions: compound at 10 μM, [125I]-NDP-αMSH
T1 construct: purchased Perkin Elmer Biosignal
Procedure, shortened: (§1)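 Cloned human receptor membranes were coated onto FlashPlate wells and incubated with radioligand and compound (added from a 0.5 mM DMSO daughter plate) for 1 hour at room temperature in the dark. Scintillation counting gave percent inhibition, with DMSO defining total and reference ligand defining non-specific binding.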

Human neurokinin (NK1) = molecular target: T2, Human neurokinin (NK1) (Homo sapiens, UniProt P25103); experiment: Radioligand binding, human neurokinin NK1 membranes, filtration, [125I]-Substance P; conditions: compound at 10 μM, [125I]-Substance P
T2 construct: purchased Perkin Elmer Biosignal
Procedure, shortened: (§2)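 Membranes from cloned human receptors were incubated with compound and radioligand for 1 hour at room temperature. Bound ligand was collected on 0.3% PEI-soaked filters, washed with cold 50 mM Tris-HCl pH 7.4, and counted by scintillation. Percent inhibition was computed against DMSO totals and reference-ligand nonspecific wells.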

Human Melanocortin (MC3) = molecular target: T3, Human Melanocortin (MC3) (Homo sapiens, UniProt P41968); experiment: Radioligand binding, human melanocortin MC3 membranes, FlashPlate, [125I]-NDP-αMSH; conditions: compound at 10 μM, [125I]-NDP-αMSH
T3 construct: purchased Perkin Elmer Biosignal
Procedure, shortened: as §1

Human opioid (ORL1) = molecular target: T4, Human opioid (ORL1) (Homo sapiens, UniProt P41146); experiment: Radioligand binding, human opioid ORL1 membranes, FlashPlate, [125I]-Nociceptin; conditions: compound at 10 μM, [125I]-Nociceptin
T4 construct: purchased Perkin Elmer Biosignal
Procedure, shortened: as §1

[1] = molecular target: T5, Human neuropeptide Y (NPY-Y1) (Homo sapiens, UniProt P25929); experiment: Radioligand binding, human neuropeptide Y NPY-Y1 membranes, FlashPlate, [125I]-PYY; conditions: compound at 10 μM, [125I]-PYY
T5 construct: purchased Perkin Elmer Biosignal
T5 sequence (P25929 1-384): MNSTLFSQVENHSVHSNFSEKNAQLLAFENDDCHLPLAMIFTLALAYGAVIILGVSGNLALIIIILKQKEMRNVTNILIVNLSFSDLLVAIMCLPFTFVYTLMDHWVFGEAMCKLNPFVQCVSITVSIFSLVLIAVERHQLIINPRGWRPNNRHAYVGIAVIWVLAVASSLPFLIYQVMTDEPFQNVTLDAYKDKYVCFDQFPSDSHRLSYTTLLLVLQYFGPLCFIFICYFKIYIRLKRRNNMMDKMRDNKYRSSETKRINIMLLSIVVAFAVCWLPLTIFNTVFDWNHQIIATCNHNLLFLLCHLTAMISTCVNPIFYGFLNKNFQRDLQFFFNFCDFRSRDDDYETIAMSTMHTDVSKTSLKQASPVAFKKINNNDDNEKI
Procedure, shortened: as §1

Human Melanocortin (MC4) = molecular target: T6, Human Melanocortin (MC4) (Homo sapiens, UniProt P32245); experiment: Radioligand binding, human melanocortin MC4 membranes, FlashPlate, [125I]-NDP-αMSH; conditions: compound at 10 μM, [125I]-NDP-αMSH; for A4: inhibition of radioligand binding, human melanocortin (MC4): 10 µM
T6 construct: purchased Perkin Elmer Biosignal
Procedure, shortened: as §1

Human μ-opioid (MOP) = molecular target: T7, Human μ-opioid (MOP) (Homo sapiens, UniProt P35372); experiment: Radioligand binding, human μ-opioid (MOP) membranes, FlashPlate, [3H]-Naloxone; conditions: compound at 10 μM, [3H]-Naloxone
T7 construct: purchased Perkin Elmer Biosignal
Procedure, shortened: as §1

Mouse urotensin (mUR2) = molecular target: T8, Mouse urotensin (mUR2) (Mus musculus, UniProt Q8VIH9); experiment: Radioligand binding, mouse urotensin mUR2 membranes, FlashPlate, [125I]-Urotensin II; conditions: compound at 10 μM, [125I]-Urotensin II
T8 construct: purchased Perkin Elmer Biosignal
T8 sequence (Q8VIH9 1-385): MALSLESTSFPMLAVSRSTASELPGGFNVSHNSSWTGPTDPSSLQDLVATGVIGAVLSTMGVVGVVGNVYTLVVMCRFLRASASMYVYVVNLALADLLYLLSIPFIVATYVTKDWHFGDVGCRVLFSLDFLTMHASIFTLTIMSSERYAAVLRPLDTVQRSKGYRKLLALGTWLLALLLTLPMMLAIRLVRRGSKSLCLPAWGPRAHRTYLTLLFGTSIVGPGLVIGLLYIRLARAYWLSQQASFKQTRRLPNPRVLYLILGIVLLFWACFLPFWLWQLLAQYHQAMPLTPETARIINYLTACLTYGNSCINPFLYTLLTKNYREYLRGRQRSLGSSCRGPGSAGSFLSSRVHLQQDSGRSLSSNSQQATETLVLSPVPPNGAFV
Procedure, shortened: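 Cloned mouse urotensin (mUR2) receptor membranes from Perkin Elmer Biosignal were immobilized in FlashPlate microplates using a proprietary coating. Each well got 19.5 μl buffer, then 0.5 μl of DMSO, reference ligand, or compound. Adding 5 μl of [125I]-Urotensin II, diluted to 5× final concentration in binding buffer, started binding. Plates were sealed with TopSeal-A and incubated 1 hour at room temperature in the dark. Wells were counted for 30 seconds each on a TopCount after a 60-second delay, and percentage inhibition was calculated.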

Human δ-opioid (DOP) = molecular target: T9, Human δ-opioid (DOP) (Homo sapiens, UniProt P41143); experiment: Radioligand binding, human δ-opioid (DOP) membranes, FlashPlate, [3H]-Bremazocine; conditions: compound at 10 μM, [3H]-Bremazocine
T9 construct: purchased Perkin Elmer Biosignal
Procedure, shortened: as §1

Human κ-Opioid (KOP) = molecular target: T10, Human κ-Opioid (KOP) (Homo sapiens, UniProt P41145); experiment: Radioligand binding, human κ-opioid (KOP) membranes, filtration, [3H]-Diprenorphine; conditions: compound at 10 μM, [3H]-Diprenorphine
T10 construct: purchased Perkin Elmer Biosignal
Procedure, shortened: as §2

[2] = molecular target: T11, Human melanin-concentrating hormone (MCH1) (Homo sapiens, UniProt Q99705); experiment: Radioligand binding, human melanin-concentrating hormone MCH1 membranes, FlashPlate, [125I]-S36057; conditions: compound at 10 μM
T11 construct: purchased Perkin Elmer Biosignal
Procedure, shortened: as §1

T1 sequence (P33032 whole entry): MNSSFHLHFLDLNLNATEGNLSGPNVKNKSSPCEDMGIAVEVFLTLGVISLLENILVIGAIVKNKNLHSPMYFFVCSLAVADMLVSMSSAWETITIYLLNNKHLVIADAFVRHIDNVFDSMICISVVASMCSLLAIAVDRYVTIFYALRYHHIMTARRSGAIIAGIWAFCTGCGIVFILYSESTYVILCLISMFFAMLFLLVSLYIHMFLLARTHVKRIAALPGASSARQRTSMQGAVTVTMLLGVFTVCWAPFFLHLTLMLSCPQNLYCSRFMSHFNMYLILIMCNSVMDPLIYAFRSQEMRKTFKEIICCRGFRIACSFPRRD
T9 sequence (P41143 whole entry): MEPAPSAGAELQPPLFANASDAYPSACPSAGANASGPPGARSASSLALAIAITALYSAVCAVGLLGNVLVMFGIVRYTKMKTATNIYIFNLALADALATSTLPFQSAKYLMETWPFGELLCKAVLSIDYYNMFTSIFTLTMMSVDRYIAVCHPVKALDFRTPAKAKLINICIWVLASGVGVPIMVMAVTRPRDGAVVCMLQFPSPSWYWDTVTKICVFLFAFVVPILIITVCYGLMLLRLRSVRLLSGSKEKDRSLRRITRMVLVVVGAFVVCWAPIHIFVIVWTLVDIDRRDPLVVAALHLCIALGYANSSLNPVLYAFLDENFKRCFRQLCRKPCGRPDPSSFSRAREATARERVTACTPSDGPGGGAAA
T6 sequence (P32245 whole entry): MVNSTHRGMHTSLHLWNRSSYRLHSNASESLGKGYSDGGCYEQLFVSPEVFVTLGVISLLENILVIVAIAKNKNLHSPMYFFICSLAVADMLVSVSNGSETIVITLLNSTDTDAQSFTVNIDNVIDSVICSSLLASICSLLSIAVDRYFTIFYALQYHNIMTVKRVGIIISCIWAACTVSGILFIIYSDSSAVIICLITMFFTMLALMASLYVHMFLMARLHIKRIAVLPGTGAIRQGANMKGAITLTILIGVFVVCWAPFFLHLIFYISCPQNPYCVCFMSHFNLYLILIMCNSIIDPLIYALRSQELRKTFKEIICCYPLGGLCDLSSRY
T10 sequence (P41145 whole entry): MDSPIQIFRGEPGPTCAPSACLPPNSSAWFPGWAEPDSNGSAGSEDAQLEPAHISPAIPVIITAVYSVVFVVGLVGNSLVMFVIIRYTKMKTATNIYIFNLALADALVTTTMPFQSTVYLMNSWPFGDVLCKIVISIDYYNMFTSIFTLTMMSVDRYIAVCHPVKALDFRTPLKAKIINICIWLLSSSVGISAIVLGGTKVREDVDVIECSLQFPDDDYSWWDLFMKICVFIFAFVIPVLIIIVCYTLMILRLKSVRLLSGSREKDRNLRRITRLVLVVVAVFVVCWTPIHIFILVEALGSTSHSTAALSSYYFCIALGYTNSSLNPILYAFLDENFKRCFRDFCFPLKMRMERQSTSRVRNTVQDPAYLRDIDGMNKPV
T4 sequence (P41146 whole entry): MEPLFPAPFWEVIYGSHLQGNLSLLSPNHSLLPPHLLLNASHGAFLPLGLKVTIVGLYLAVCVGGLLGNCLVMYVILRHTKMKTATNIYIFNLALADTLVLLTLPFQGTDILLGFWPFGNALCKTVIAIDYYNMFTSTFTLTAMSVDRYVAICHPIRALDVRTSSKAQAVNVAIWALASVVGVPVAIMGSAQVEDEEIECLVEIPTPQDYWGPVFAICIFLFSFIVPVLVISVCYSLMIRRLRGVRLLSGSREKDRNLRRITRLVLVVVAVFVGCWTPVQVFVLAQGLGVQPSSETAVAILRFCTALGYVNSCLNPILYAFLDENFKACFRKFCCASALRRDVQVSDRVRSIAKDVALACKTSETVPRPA
T3 sequence (P41968 whole entry): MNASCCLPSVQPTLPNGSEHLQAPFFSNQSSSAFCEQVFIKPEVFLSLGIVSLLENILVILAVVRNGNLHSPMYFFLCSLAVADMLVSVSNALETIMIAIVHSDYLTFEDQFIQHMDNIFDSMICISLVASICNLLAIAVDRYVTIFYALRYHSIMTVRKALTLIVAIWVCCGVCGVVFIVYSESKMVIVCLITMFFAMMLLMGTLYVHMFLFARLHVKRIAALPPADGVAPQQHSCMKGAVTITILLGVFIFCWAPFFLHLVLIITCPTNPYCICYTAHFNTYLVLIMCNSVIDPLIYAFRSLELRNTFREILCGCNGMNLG
T11 sequence (Q99705 whole entry): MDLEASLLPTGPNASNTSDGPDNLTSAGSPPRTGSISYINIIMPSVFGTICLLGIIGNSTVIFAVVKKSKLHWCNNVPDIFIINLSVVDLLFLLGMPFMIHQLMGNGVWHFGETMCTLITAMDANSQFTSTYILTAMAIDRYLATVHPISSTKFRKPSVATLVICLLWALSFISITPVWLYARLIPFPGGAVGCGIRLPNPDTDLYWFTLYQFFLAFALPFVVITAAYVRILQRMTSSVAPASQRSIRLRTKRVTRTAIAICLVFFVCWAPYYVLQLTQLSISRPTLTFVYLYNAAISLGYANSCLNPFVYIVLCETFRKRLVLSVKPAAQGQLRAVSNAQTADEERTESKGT
T2 sequence (P25103 whole entry): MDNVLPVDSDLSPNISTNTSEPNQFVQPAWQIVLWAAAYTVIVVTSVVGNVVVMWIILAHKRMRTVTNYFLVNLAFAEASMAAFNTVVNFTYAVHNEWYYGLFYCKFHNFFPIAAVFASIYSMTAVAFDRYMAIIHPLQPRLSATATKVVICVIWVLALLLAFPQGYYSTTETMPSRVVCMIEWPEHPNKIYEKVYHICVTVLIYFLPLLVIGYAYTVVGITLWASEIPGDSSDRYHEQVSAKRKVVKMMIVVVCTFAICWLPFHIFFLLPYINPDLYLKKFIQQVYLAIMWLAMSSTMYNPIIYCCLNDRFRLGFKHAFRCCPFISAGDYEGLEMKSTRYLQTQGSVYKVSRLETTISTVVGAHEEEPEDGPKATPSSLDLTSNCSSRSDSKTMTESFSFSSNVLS
T7 sequence (P35372 whole entry): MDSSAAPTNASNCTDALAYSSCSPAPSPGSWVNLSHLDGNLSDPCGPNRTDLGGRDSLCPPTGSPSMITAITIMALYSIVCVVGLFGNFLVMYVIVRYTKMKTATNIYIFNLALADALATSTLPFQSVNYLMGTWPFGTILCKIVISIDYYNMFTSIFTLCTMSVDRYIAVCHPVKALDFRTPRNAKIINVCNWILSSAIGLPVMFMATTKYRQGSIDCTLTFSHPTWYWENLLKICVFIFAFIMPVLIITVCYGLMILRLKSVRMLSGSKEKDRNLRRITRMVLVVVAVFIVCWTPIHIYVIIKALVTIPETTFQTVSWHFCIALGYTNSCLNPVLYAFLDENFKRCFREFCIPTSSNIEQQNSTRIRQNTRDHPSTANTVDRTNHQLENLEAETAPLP

N=C(N)NCCC(=O)N[C@H]1C(OCc2ccc(Cl)cc2)O[C@H](COCc2ccccc2)[C@@H](O)[C@@H]1OCc1ccc(Cl)cc1 (stereo partly shown) [compound 525]
A5: inhibition of radioligand binding, human melanocortin (MC5) (Human melanocortin (MC5)): + (“+” indicates greater than 50% inhibition at 10 μM)
A8: inhibition of radioligand binding, human neurokinin (NK1) (Human neurokinin (NK1)): + (“+” indicates greater than 50% inhibition at 10 μM)
A3: inhibition of radioligand binding, human melanocortin (MC3) (Human Melanocortin (MC3); 10 µM): + (“+” indicates greater than 50% inhibition at 10 μM)
A10: inhibition of radioligand binding, human opioid (ORL1) (Human opioid (ORL1)): − (“−” indicates less than 50% inhibition at 10 μM)
A9: inhibition of radioligand binding, human neuropeptide Y (NPY-Y1) [1]: − (“−” indicates less than 50% inhibition at 10 μM)
A4: inhibition of radioligand binding, human melanocortin (MC4) (Human Melanocortin (MC4)): + (“+” indicates greater than 50% inhibition at 10 μM)
A7: inhibition of radioligand binding, human μ-opioid (MOP) (Human μ-opioid (MOP)): − (“−” indicates less than 50% inhibition at 10 μM)
A11: inhibition of radioligand binding, mouse urotensin (mUR2) (Mouse urotensin (mUR2)): − (“−” indicates less than 50% inhibition at 10 μM)
A1: inhibition of radioligand binding, human δ-opioid (DOP) (Human δ-opioid (DOP)): − (“−” indicates less than 50% inhibition at 10 μM)
A2: inhibition of radioligand binding, human κ-opioid (KOP) (Human κ-Opioid (KOP); 10 µM): + (“+” indicates greater than 50% inhibition at 10 μM)
A6: inhibition of radioligand binding, human melanin-concentrating hormone (MCH1) ([2]; [125I]-S36057): + (“+” indicates greater than 50% inhibition at 10 μM)

NCCC(=O)N[C@H]1C(OCc2ccc3ccccc3c2)O[C@H](COCc2ccc3ccccc3c2)[C@@H](O)[C@@H]1OCc1ccccc1 (stereo partly shown) [compound 449]
A5: inhibition of radioligand binding (Human melanocortin (MC5); human MC5 membranes): + (“+” indicates greater than 50% inhibition at 10 μM)
A8: inhibition of radioligand binding (Human neurokinin (NK1); human NK1 membranes): + (“+” indicates greater than 50% inhibition at 10 μM)
A3: inhibition of radioligand binding (Human Melanocortin (MC3); human MC3 membranes, 10 µM): + (“+” indicates greater than 50% inhibition at 10 μM)
A10: inhibition of radioligand binding (Human opioid (ORL1); human ORL1 membranes, 10 µM): + (“+” indicates greater than 50% inhibition at 10 μM)
A9: inhibition of radioligand binding ([1]; human NPY-Y1 membranes): − (“−” indicates less than 50% inhibition at 10 μM)
A4: inhibition of radioligand binding (Human Melanocortin (MC4); human MC4 membranes): + (“+” indicates greater than 50% inhibition at 10 μM)
A7: inhibition of radioligand binding (Human μ-opioid (MOP); human MOP membranes): − (“−” indicates less than 50% inhibition at 10 μM)
A11: inhibition of radioligand binding (Mouse urotensin (mUR2); mouse mUR2 membranes): − (“−” indicates less than 50% inhibition at 10 μM)
A1: inhibition of radioligand binding (Human δ-opioid (DOP); human DOP membranes): − (“−” indicates less than 50% inhibition at 10 μM)
A2: inhibition of radioligand binding (Human κ-Opioid (KOP); human KOP membranes): − (“−” indicates less than 50% inhibition at 10 μM)
A6: inhibition of radioligand binding ([2]; [125I]-S36057, human MCH1 membranes, 10 µM): + (“+” indicates greater than 50% inhibition at 10 μM)

CO[C@H]1[C@H](O)[C@@H](COCc2cccc(O)c2)OC(OCc2ccc(-c3ccccc3)cc2)[C@@H]1NC(=O)CNC(=N)N (stereo partly shown) [compound 146]
A5 radioligand binding, percentage inhibition (Human melanocortin (MC5)): + (“+” indicates greater than 50% inhibition at 10 μM)
A8 radioligand binding, percentage inhibition (Human neurokinin (NK1)): + (“+” indicates greater than 50% inhibition at 10 μM)
A3 radioligand binding, percentage inhibition (Human Melanocortin (MC3)): − (“−” indicates less than 50% inhibition at 10 μM)
A10 radioligand binding, percentage inhibition (Human opioid (ORL1)): − (“−” indicates less than 50% inhibition at 10 μM)
A9 radioligand binding, percentage inhibition [1]: − (“−” indicates less than 50% inhibition at 10 μM)
A4 radioligand binding, percentage inhibition (Human Melanocortin (MC4)): − (“−” indicates less than 50% inhibition at 10 μM)
A7 radioligand binding, percentage inhibition (Human μ-opioid (MOP)): − (“−” indicates less than 50% inhibition at 10 μM)
A11 radioligand binding, percentage inhibition (Mouse urotensin (mUR2)): − (“−” indicates less than 50% inhibition at 10 μM)
A1 radioligand binding, percentage inhibition (Human δ-opioid (DOP)): − (“−” indicates less than 50% inhibition at 10 μM)
A2 radioligand binding, percentage inhibition (Human κ-Opioid (KOP)): + (“+” indicates greater than 50% inhibition at 10 μM)
A6 radioligand binding, percentage inhibition ([2]; [125I]-S36057): − (“−” indicates less than 50% inhibition at 10 μM)

COCC1OC(OCc2ccc3ccccc3c2)C(NC(=O)CCN)C(OCc2ccc3ccccc3c2)C1O (stereo not shown) [compound 248]
A5: inhibition of radioligand binding (Human melanocortin (MC5); FlashPlate): + (“+” indicates greater than 50% inhibition at 10 μM)
A8: inhibition of radioligand binding (Human neurokinin (NK1); filtration): + (“+” indicates greater than 50% inhibition at 10 μM)
A3: inhibition of radioligand binding (Human Melanocortin (MC3); FlashPlate): − (“−” indicates less than 50% inhibition at 10 μM)
A10: inhibition of radioligand binding (Human opioid (ORL1); FlashPlate): − (“−” indicates less than 50% inhibition at 10 μM)
A9: inhibition of radioligand binding ([1]; FlashPlate): − (“−” indicates less than 50% inhibition at 10 μM)
A4: inhibition of radioligand binding (Human Melanocortin (MC4); FlashPlate): − (“−” indicates less than 50% inhibition at 10 μM)
A7: inhibition of radioligand binding (Human μ-opioid (MOP); FlashPlate): − (“−” indicates less than 50% inhibition at 10 μM)
A11: inhibition of radioligand binding (Mouse urotensin (mUR2); FlashPlate): − (“−” indicates less than 50% inhibition at 10 μM)
A1: inhibition of radioligand binding (Human δ-opioid (DOP); FlashPlate): − (“−” indicates less than 50% inhibition at 10 μM)
A2: inhibition of radioligand binding (Human κ-Opioid (KOP); filtration): − (“−” indicates less than 50% inhibition at 10 μM)
A6: inhibition of radioligand binding ([2]; [125I]-S36057, FlashPlate): − (“−” indicates less than 50% inhibition at 10 μM)

NCCC(=O)NC1C(OCc2ccc(Cl)cc2)OC(COCc2ccc(Cl)cc2)C(O)C1OCc1ccccc1 (single isomer, unassigned) [compound 487]
A5: inhibition of radioligand binding, human melanocortin (MC5) (Human melanocortin (MC5)): + (“+” indicates greater than 50% inhibition at 10 μM)
A8: inhibition of radioligand binding, human neurokinin (NK1) (Human neurokinin (NK1); 10 µM): − (“−” indicates less than 50% inhibition at 10 μM)
A3: inhibition of radioligand binding, human melanocortin (MC3) (Human Melanocortin (MC3)): − (“−” indicates less than 50% inhibition at 10 μM)
A10: inhibition of radioligand binding, human opioid (ORL1) (Human opioid (ORL1); 10 µM): − (“−” indicates less than 50% inhibition at 10 μM)
A9: inhibition of radioligand binding, human neuropeptide Y (NPY-Y1) [1]: − (“−” indicates less than 50% inhibition at 10 μM)
A4: inhibition of radioligand binding, human melanocortin (MC4) (Human Melanocortin (MC4)): − (“−” indicates less than 50% inhibition at 10 μM)
A7: inhibition of radioligand binding, human μ-opioid (MOP) (Human μ-opioid (MOP); 10 µM): + (“+” indicates greater than 50% inhibition at 10 μM)
A11: inhibition of radioligand binding, mouse urotensin (mUR2) (Mouse urotensin (mUR2)): − (“−” indicates less than 50% inhibition at 10 μM)
A1: inhibition of radioligand binding, human δ-opioid (DOP) (Human δ-opioid (DOP)): − (“−” indicates less than 50% inhibition at 10 μM)
A2: inhibition of radioligand binding, human κ-opioid (KOP) (Human κ-Opioid (KOP)): − (“−” indicates less than 50% inhibition at 10 μM)
A6: inhibition of radioligand binding, human melanin-concentrating hormone (MCH1) ([2]; [125I]-S36057): − (“−” indicates less than 50% inhibition at 10 μM)
